Laboratory results reported in ChEMBL document CHEMBL3639324, “Meta-substituted phenyl sulfonyl amides of secondary amino acid amides, the production thereof, and use thereof as matriptase inhibitors” (2013).

Molecular target: T1, Suppressor of tumorigenicity 14 protein (Homo sapiens, UniProt Q9Y5Y6)
T1 sequence (Q9Y5Y6 whole entry): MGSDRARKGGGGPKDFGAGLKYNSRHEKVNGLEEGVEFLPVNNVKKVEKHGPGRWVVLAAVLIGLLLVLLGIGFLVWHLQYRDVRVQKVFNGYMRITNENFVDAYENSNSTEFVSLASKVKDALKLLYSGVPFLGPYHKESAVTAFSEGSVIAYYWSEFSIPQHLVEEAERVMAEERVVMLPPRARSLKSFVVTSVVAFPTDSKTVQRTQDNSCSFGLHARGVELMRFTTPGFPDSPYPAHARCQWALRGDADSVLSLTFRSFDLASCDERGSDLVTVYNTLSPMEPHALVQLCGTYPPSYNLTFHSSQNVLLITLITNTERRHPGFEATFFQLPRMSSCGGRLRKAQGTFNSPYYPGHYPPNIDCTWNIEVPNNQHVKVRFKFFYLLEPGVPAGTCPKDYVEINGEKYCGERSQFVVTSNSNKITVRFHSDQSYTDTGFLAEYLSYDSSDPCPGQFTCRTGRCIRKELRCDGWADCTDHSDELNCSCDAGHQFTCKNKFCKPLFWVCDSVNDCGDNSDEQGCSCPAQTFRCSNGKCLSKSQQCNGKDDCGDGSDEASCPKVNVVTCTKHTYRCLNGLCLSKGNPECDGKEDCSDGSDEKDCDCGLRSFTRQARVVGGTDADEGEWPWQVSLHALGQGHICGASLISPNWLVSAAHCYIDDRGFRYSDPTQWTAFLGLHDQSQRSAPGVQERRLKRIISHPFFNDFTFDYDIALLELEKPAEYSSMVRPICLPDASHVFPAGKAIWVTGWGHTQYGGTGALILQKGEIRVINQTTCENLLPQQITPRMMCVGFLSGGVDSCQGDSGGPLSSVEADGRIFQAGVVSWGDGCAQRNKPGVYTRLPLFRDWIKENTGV
Experiment: Inhibition Assay: Inhibition assay using matriptase enzyme

- Ki: 24 nM
Compound: CNC(=O)CCCC1CCN(C(=O)[C@H](Cc2cccc(C(=N)N)c2)NS(=O)(=O)c2cccc(N3CCNCC3=O)c2)CC1
